In patent US8252768B2, “Designer therapy of pancreatic tumors” (University of Miami, priority 2006, dated 2012):
Read-outs that look alike come from different tables or passages of the source. Marks after values point to notes of the source that are not given here.

Experiments:
uridine/cytidine kinase = experiment: Competition assay for substrates of uridine/cytidine kinase, crude extracts of T24 cells; assay type: biochemical, human
Method: 2 mM dithiothreitol (DTT) and 0.5 mM phenylmethylsulfanyl fluoride were added just before extraction. The tissue sample was homogenized in a Dounce glass homogenizer and then sonicated for 3 five-second pulses in a Branson Sonifier with a micro-tip at 25 KHz to disrupt the cells. During homogenization and sonication the extract was kept cold throughout the procedures. The tissue extract was then centrifuged at 14,000×g at 4° C. for 15 min., and the supernatant (the crude enzyme extract) was removed. The supernatant was sheared 20 times on ice utilizing a 1 cc syringe with a 27 G½ needle to reduce viscosity. […] 2 mM DTT and 340 μM H4U were added just before the assay. Finally, to the reaction mixture, 5 μl 200 mM creatine phosphate and creatine phosphokinase (0.5 unit/μl) was added to 150 μl of the section mixture. […] H2O bath for 1 minute before 20 μl of the crude enzyme extract was added to initiate the reaction. […] At 0, 30 and 60 minutes the reaction mixture, divided in separate tubes, was heated in a boiling water bath for 2 minutes to terminate the reaction. Denatured protein was then removed by centrifugation of the sample for 2 minutes at 14,000×g. The amount of nucleotide formed was determined by spotting 20 μl aliquots of the reaction mixture onto DE-81 2.2 cm Whatman filter discs. After air drying, the unphosphorylated substrate nucleoside was removed by washing twice for 10 min. in 20 mM ammonium formate and twice for 5 min. in deionized H2O with gentle stirring. A control, lacking the crude enzyme extract was included with each determination. The washed papers were dried under a heat lamp and then placed into individual scintillation vials, eluted for 30 min. in 1 ml of 0.1M HCl-0.1M KCL and then vortexed in 5 ml of scintillation fluid and counted. Enzyme activity was expressed as pmoles/min/mg protein.
When uridine was utilized as substrate, benzacyclouridine was added to prevent the catabolism of the substrate by uridine phosphorylase and tetrahydrouridine was omitted.

T24 cells = experiment: Radiosensitization of cells in culture (Cobalt 60, clonogenic survival); assay type: cell-based, human
Method: (§1) Toxicity and Radiation Studies: The methods using clonogenic assays described by Perez and Greer (Int. J. Rad. Oncology: Biology, Physics 12, 1523-1527, 1986—incorporated herein by reference in its entirety) were followed.
(§2) Irradiation of Cells in Culture: 2×10^5 cells were plated in 25 cm^2 flasks and grown for 18 hr at 37° C. in a humidified 5% CO2 atmosphere. The medium was then removed and replaced with medium containing the appropriate drug concentrations and incubated for 72 hrs then removed and the cell monolayers were rinsed twice with PBS. The flasks were then filled with 50 ml of radiation medium (3 parts RPMI 1640 and 7 parts PBS plus antibiotics and glutamine). The cells were then irradiated using a Cobalt 60 irradiator. The cell monolayers were placed 35 cm away from the source and irradiated for appropriate times according to the dose rate. The dose rate was calculated, at this distance, using ionization chambers. Attenuation factors due to the polystyrene flask (0.9923) and the medium (H2O=0.8715) were considered in calculating the exposure period.
(§3) After irradiation the cell monolayers were washed again, replenished with growth media, and incubated for 1½ hours. The cell monolayers were then trypsinized and the cells serially diluted, appropriate dilutions were then plated in 60 mm dishes and incubated for 7-9 days at 37° C. and CO2. At the end of this period the cells were stained with crystal violet and the colony forming ability determined by considering 25 or more normal cells as a viable colony. The viabilities were determined and the appropriate survival curves derived. All conditions were done in duplicate using two flasks treated under identical conditions.

PC-3 cells [1] = experiment: as above; assay type: cell-based, human; settings: PC-3 cells
Method: as §1, §2, §3

Lewis lung carcinoma = experiment: Mean day of death (T/C), Lewis lung carcinoma in mice; assay type: in vivo, BD2F1 mice
Method: ; The efficacy of the drug, F3methyldC followed the pattern of Selectivity. The mean day of death (Tumor/Control) was 1.3, 1.6, 1.8 and 1.4 for 10, 25, 50 and 75 mg/kg H4U, respectively. […].

mouse tumor = settings: in vivo; cited from earlier work
cytidine deaminase (CD) = biological target: T1, cytidine deaminase (CD) (Homo sapiens, UniProt P32320); experiment: Competition assay for substrates of cytidine deaminase, crude extracts of PC-3 cells; assay type: biochemical; settings: competition studies, human tumor cell extracts
T1 construct: Crude extracts of PC-3 cells in culture were prepared as described above; endogenous in cells; host or cells: PC-3 cells (crude extract supernatant)
Method: (§4) The crude enzyme extract (the supernatant of a 10 minute 14,000×g centrifugation) was then added. When cytidine was used as substrate, assays were conducted with benzacyclouridine to inhibit uridine phosphorylases. […] After 0, 15, and 30 minutes, the reaction was stopped and denatured protein removed as above for dC Kinase. […] Aliquots were then spotted on PE cellulose TLC sheets and the reactants separated with a solvent system composed of isopropanol:HCl:H2O (170:41:39). […] The nucleosides were visualized under U.V. light and the spots cut out and counted. […] Enzyme activity was expressed as nmole formed in 30 min/mg/protein.
Competition assays to determine Substrate Specificity: Crude extracts of PC-3 cells in culture were prepared as described above. Two concentrations of crude extract were utilized for the studies as determined from the analysis of protein.
The assays were run for 0, 15, and 30 minutes.

[2] = biological target: deoxycytidine kinase (dCK) (Homo sapiens, UniProt P27707); experiment: Competition assay for substrates of deoxycytidine kinase, crude extracts of PC-3 cells
PC-3 cells [3] = experiment: Cytotoxicity (clonogenic) assay, 72 h drug exposure; assay type: cell-based, human
Method: as §1
Cytotoxicity Assays: 5×10^5 cells were plated in 60 mm tissue culture dishes in 5 mls of the optimal growth media for the particular cell line in an humidified 95% air-5% CO2 atmosphere. The plates were incubated for 18-20 hours to allow for attachment and log-phase growth to begin. At the end of this period the growth medium was aspirated and replaced with […]. Four times (4×) concentrated solutions were prepared and then 1 ml was added to the plates; and growth media were then added to a total volume of […]. The plates were then incubated for 72 hours and the cells harvested by trypsinization. The cells were then serially diluted in growth medium replated into 60 mm dishes and incubated for 6 to 9 days depending on the cell line. After this incubation period, the media was aspirated and the colonies were washed twice with a PBS solution. The colonies were then stained with a 0.2% crystal violet-20% ethanol solution for 5 min. the stain was removed, the colonies were washed and air dried. A viable colony was one consisting of 25 or more normal appearing cells and was considered to have arisen from a single cell. The colonies were counted under a dissecting microscope. Two to three dilutions for every condition were plated. Dishes containing 30-300 colonies were used in the calculation and all conditions were done in duplicate.

dCMP deaminase = biological target: T2, dCMP deaminase (Mus musculus, UniProt Q8K2D6); experiment: Inhibition of dCMP deaminase after H4U in mice bearing Lewis lung carcinoma; assay type: in vivo, BD2F1 mice; settings: for % of inhibition of dCMP deaminase of tumor: 30 min
T2 construct: deaminase activity of tumor, serum and other tissues assayed 30 min after H4U; from tissue; host or cells: tumor (Lewis lung carcinoma), serum and other tissues of BD2F1 mice
T2 sequence (Q8K2D6 1-178): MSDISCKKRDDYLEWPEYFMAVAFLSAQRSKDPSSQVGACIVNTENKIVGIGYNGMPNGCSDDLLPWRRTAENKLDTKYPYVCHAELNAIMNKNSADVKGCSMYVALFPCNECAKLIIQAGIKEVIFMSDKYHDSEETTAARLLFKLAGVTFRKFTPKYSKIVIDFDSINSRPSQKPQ
Method: dCMP Deaminase Activity: The crude enzyme extract was prepared as described in A. The reaction was carried out in 60 mM Tris HCl, pH 8.0, and 50 μm dCTP, 2.5 mM MgCl2, 30 mM NaF, and 80% H2O to which dCMP (^3H labeled) was added to a final concentration of 2 mM; 20 μl of enzyme extract was added to initiate the reaction giving a total volume of […]. […] A control lacking enzyme was included with each determination. The reaction was terminated as described above in at 0, 30 and 45 minutes and denatured protein was removed by centrifugation as described above. To 10 μl of the supernatant, 6 μl of a 0.03M solution of the carrier nucleotides, dCMP and dUMP were added so that the reactants can be visualized under a UV lamp. Chromatographic isolation of the products was carried out in 2 different solvent systems: A) Baker DEAE Cellulose TLC sheets in 0.01N HCl for 35 min. […] Each appropriate area of the thin layer sheets (where dCMP and dUMP were separated), were cut into small pieces and placed in separate vials and extracted with 1N HCl (1 ml) for 30 minutes. Scintillation cocktail was added (5 ml) to the vials which were vortexed prior to counting. The specific activity was expressed as nmoles/min/mg protein.

cytidine deaminase = biological target: T3, cytidine deaminase (Mus musculus, UniProt P56389); experiment: Inhibition of tissue cytidine deaminase in mice bearing mammary adenocarcinoma-755 (FIG. 6); assay type: in vivo, BD2F1 mice; settings: H4U 25 mg/kg or deoxytetrahydrouridine 100 mg/kg i.p.; 60 min
T3 construct: from tissue; host or cells: Lewis lung carcinoma, liver, spleen, intestine, bone marrow, kidney, skeletal muscle and serum of BD2F1 mice
Method: as §4

[4] = H4U 25 mg/kg with F3methyldC, mean ± SE
[5] = H4U 50 mg/kg with F3methyldC, mean ± SE

Sequence of deoxycytidine kinase (dCK) (P27707 whole entry): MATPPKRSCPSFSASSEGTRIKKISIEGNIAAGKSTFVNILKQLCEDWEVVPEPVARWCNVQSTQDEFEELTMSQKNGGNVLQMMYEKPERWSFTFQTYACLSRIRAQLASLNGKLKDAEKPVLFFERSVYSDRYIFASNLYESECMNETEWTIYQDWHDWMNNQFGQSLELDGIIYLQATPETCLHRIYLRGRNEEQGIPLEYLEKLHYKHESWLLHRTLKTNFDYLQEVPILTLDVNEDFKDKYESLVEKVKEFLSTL
T3 sequence (P56389 whole entry): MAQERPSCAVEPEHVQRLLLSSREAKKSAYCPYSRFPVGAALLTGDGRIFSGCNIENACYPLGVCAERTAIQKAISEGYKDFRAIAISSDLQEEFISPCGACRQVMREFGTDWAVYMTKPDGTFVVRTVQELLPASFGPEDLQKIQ
T1 sequence (P32320 whole entry): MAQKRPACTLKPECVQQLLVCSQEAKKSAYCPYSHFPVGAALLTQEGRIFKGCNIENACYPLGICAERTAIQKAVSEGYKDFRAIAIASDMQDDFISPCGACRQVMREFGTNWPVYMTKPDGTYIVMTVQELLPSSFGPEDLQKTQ

O=c1[nH]c(=O)n([C@@H]2O[C@H](CO)[C@@H](O)[C@H]2O)cc1Cl [5-Chlorouridine]
substrate for U/C kinase of T24 cells (in words) (uridine/cytidine kinase): moderate substrates
% Inhibitation (U/C kinase) (uridine/cytidine kinase; competitor 100 μM, substrate 3H-Cytidine 8.3 μM): 8%
% Inhibitation (U/C kinase) (uridine/cytidine kinase; competitor 100 μM, substrate 3H-Uridine 16.7 μM): 11%
% Inhibitation (U/C kinase) (uridine/cytidine kinase; competitor 250 μM, substrate 3H-Cytidine 8.3 μM): 21%
% Inhibitation (U/C kinase) (uridine/cytidine kinase; competitor 250 μM, substrate 3H-Uridine 16.7 μM): 22%
% Inhibitation (U/C kinase) (uridine/cytidine kinase; competitor 500 μM, substrate 3H-Cytidine 8.3 μM): 32%
% Inhibitation (U/C kinase) (uridine/cytidine kinase; competitor 500 μM, substrate 3H-Uridine 16.7 μM): 24%
% Inhibitation (U/C kinase) (uridine/cytidine kinase; competitor 750 μM, substrate 3H-Cytidine 8.3 μM): 39%
% Inhibitation (U/C kinase) (uridine/cytidine kinase; competitor 750 μM, substrate 3H-Uridine 16.7 μM): 32%
radiosensitization of T24 cells (in words) (T24 cells): effective radiosensitizer
radiosensitization of T24 cells (in words) (T24 cells; listed as Chlorouridine): compared very favorably with the other established Radiosensitizers
radiosensitization of PC-3 cells (in words) (PC-3 cells [1]): effective radiosensitizer

Nc1nc(=O)n([C@H]2C[C@H](O)[C@@H](CO)O2)cc1C(F)(F)F [5-TrifluoromethyldC, 5-Trifluoromethyl-2′-deoxycytidine]
MDD T/C (mean day of death) (Lewis lung carcinoma; H4U 10 mg/kg with F3methyldC): 1.3
MDD T/C (mean day of death) (Lewis lung carcinoma; [4]): 1.6
MDD T/C (mean day of death) (Lewis lung carcinoma; [5]): 1.8
MDD T/C (mean day of death) (Lewis lung carcinoma; H4U 75 mg/kg with F3methyldC): 1.4
efficacy vs a mouse tumor compared with other fluorinated pyrimidines (in words) (mouse tumor): superior to 5-FUra, 5-FdU and 5-F3dT
substrate for cytidine deaminase (in words) (cytidine deaminase (CD)): reasonably good substrate
substrate for deoxycytidine kinase (in words) ([2]; competition studies, human tumor cell extracts): poor substrate
inhibition at 250 µM ([2]; read-out: % Inhibition (dCK)): 0%
radiosensitization of PC-3 cells (in words) (PC-3 cells [1]): not a radiosensitizer
effect of thymidine on cytotoxicity (in words) (PC-3 cells [3]): antagonized by thymidine
effect of tetrahydrouridine (H4U) on cytotoxicity / viability (in words) (PC-3 cells [3]; human, 72 h): can be antagonized by H4U
% S (PC-3 cells [3]; nucleoside 1 μM, H4U 5 μM): 67%
% S (PC-3 cells [3]; nucleoside 1 μM, H4U 100 μM): 100%
% S (PC-3 cells [3]; nucleoside 1 μM, H4U 1500 μM): 100%
% S (PC-3 cells [3]; nucleoside 10 μM, H4U 5 μM): 0.1%
% S (PC-3 cells [3]; nucleoside 10 μM, H4U 100 μM): 2%
% S (PC-3 cells [3]; nucleoside 10 μM, H4U 1500 μM): 3.3%

O=C1NC(O)CCN1[C@H]1C[C@H](O)[C@@H](CO)O1 (stereo partly drawn) [Deoxytetrahydrouridine]
selective inhibition of dCMP deaminase of normal tissue (in words) (dCMP deaminase; mouse, in vivo): not selectively inhibited
selectivity of inhibition: tumor CD vs CD of normal tissues (in words) (cytidine deaminase): did not display a selective inhibition

O=C1NC(O)CCN1[C@@H]1O[C@H](CO)[C@@H](O)[C@H]1O (stereo partly drawn) [Tetrahydrouridine]
MDD T/C (mean day of death) (Lewis lung carcinoma; H4U 10 mg/kg with F3methyldC): 1.25
MDD T/C (mean day of death) (Lewis lung carcinoma; [4]): 1.63 ± 0.07^e
MDD T/C (mean day of death) (Lewis lung carcinoma; [5]): 1.78 ± 0.06
MDD T/C (mean day of death) (Lewis lung carcinoma; H4U 75 mg/kg with F3methyldC): 1.44
% Inhibitation (U/C kinase) (uridine/cytidine kinase; competitor 1500 μM, substrate 3H-Cytidine 8.3 μM): 1.5%
% Inhibitation (U/C kinase) (uridine/cytidine kinase; competitor 1500 μM, substrate 3H-Uridine 16.7 μM): 1.7%
% S (PC-3 cells [3]; no nucleoside, H4U 100 μM alone): 100%
% of inhibition of dCMP deaminase of tumor (dCMP deaminase; H4U 10 mg/kg, footnote: less than 5% enzyme inhibition): 0^d %
% of inhibition of dCMP deaminase of tumor (dCMP deaminase; H4U 25 mg/kg): 0%
% of inhibition of dCMP deaminase of tumor (dCMP deaminase; H4U 50 mg/kg): 0%
% of inhibition of dCMP deaminase of tumor (dCMP deaminase; H4U 75 mg/kg): 0%
